Measurements as given in ChEMBL document CHEMBL3991601, “The target landscape of clinical kinase drugs” (Science, 2017).
Activity calls are given as the source filed them.

Columns and labels:
[1] = target: T1, Ephrin type-B receptor 3 (Homo sapiens, UniProt P54753)
T1 sequence (P54753 whole entry): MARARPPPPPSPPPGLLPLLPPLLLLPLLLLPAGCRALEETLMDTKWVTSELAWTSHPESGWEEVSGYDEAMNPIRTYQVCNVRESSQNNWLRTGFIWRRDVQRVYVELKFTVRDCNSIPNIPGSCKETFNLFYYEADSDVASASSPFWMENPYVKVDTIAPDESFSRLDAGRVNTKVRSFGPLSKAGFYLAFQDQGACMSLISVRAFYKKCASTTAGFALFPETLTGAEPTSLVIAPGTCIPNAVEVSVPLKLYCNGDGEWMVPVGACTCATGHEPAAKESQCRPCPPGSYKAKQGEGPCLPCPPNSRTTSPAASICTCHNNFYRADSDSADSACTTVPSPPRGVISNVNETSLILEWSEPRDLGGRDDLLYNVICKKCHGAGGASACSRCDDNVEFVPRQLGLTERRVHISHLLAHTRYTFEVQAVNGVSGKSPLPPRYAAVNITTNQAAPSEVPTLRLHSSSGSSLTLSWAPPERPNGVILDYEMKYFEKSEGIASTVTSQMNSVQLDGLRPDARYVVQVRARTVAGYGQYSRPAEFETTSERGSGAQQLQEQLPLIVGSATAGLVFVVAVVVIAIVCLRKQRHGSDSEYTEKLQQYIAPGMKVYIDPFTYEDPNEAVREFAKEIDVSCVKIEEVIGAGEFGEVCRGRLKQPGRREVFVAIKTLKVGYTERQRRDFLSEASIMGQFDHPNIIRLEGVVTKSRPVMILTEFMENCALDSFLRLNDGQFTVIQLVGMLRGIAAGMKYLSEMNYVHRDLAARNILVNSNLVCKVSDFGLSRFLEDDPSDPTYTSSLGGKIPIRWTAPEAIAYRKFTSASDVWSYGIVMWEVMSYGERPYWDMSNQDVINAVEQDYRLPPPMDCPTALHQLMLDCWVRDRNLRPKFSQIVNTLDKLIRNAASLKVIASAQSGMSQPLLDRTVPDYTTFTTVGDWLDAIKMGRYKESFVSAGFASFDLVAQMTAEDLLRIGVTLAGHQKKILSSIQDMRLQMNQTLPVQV

[2] = target: T2, Serine/threonine-protein kinase Nek3 (Homo sapiens, UniProt P51956)
T2 sequence (P51956 whole entry): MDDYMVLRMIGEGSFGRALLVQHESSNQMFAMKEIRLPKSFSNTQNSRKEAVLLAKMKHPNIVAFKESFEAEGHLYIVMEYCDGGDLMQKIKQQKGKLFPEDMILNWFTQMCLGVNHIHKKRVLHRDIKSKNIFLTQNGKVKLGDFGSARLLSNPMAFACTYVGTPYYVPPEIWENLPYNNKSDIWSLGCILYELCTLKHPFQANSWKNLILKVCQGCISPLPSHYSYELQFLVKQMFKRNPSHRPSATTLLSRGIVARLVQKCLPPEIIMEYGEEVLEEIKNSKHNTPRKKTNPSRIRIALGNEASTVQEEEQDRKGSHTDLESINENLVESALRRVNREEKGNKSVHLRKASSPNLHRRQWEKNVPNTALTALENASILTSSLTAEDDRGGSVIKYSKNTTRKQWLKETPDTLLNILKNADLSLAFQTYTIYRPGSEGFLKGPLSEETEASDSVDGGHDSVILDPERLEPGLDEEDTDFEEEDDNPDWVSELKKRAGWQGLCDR

[3] = target: Activin receptor type-2B (Homo sapiens, UniProt Q13705)
Activin receptor type-2B, sequence (Q13705 whole entry): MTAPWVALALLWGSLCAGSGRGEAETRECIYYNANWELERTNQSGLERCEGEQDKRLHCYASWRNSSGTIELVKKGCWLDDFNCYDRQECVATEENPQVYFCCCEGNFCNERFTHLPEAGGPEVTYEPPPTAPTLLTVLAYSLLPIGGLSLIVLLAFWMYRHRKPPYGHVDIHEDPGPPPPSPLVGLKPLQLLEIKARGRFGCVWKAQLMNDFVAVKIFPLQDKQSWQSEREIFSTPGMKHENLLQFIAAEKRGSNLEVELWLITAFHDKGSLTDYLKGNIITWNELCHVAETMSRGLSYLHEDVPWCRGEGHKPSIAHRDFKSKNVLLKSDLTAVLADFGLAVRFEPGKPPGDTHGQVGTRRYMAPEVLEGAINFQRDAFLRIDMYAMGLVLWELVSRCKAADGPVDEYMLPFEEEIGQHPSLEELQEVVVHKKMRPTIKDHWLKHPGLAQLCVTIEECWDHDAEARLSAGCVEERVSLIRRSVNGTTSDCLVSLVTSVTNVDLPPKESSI

[4] = target: NADH dehydrogenase [ubiquinone] 1 alpha subcomplex subunit 13 (Homo sapiens, UniProt Q9P0J0)
NADH dehydrogenase [ubiquinone] 1 alpha subcomplex subunit 13, sequence (Q9P0J0 whole entry, one chain of several): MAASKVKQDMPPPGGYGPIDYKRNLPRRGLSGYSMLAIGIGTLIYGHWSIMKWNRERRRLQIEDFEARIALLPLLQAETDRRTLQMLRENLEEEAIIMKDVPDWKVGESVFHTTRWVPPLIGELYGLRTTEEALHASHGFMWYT

[5] = target: T3, Mitogen-activated protein kinase 15 (Homo sapiens, UniProt Q8TD08)
T3 sequence (Q8TD08 whole entry): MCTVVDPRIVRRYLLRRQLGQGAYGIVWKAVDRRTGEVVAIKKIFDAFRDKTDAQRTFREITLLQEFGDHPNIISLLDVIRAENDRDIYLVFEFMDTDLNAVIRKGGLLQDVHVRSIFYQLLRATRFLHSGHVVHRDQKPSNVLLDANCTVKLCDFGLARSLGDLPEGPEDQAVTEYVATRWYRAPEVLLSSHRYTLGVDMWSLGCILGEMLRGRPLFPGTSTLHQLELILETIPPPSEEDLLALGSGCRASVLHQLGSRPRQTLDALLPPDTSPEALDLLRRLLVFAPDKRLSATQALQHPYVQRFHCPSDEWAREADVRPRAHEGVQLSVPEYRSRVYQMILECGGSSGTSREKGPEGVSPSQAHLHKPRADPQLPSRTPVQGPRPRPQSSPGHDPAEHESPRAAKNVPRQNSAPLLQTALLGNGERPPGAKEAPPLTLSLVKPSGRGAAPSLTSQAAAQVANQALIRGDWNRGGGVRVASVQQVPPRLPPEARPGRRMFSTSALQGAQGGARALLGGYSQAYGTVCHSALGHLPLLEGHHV
Note: in the data inactive means no Kd found up to 30 µM.

CO[C@H]1C[C@@H]2CC[C@@H](C)[C@@](O)(O2)C(=O)C(=O)N2CCCC[C@H]2C(=O)O[C@H]([C@H](C)C[C@@H]2CC[C@@H](OC(=O)C(C)(CO)CO)[C@H](OC)C2)CC(=O)[C@H](C)/C=C(\C)[C@@H](O)[C@@H](OC)C(=O)[C@H](C)C[C@H](C)/C=C/C=C/C=C/1C [TEMSIROLIMUS]
Kd [1]: > 30 µM (inactive) | Kd [2]: > 30 µM (inactive) | Kd [3]: > 30 µM (inactive) | Kd [4]: > 30 µM (inactive) | Kd [5]: > 30 µM (inactive)

Cn1cnc2c(F)c(Nc3ccc(Br)cc3F)c(C(=O)NOCCO)cc21 [BINIMETINIB]
Kd [1]: > 30 µM (inactive) | Kd [2]: > 30 µM (inactive) | Kd [3]: > 30 µM (inactive) | Kd [4]: > 30 µM (inactive) | Kd [5]: > 30 µM (inactive)

CCOc1cc2ncc(C#N)c(Nc3ccc(F)c(Cl)c3)c2cc1NC(=O)/C=C/CN(C)C [PELITINIB]
Kd [1]: > 30 µM (inactive) | Kd [2]: > 30 µM (inactive) | Kd [3]: > 30 µM (inactive) | Kd [4]: > 30 µM (inactive) | Kd [5]: > 30 µM (inactive)

COc1c(OCCCN2CCOCC2)ccc2c1N=C(NC(=O)c1cnc(N)nc1)N1CCN=C21 [COPANLISIB]
Kd [1]: > 30 µM (inactive) | Kd [2]: > 30 µM (inactive) | Kd [3]: > 30 µM (inactive) | Kd [4]: > 30 µM (inactive) | Kd [5]: > 30 µM (inactive)

O=c1[nH]ccc2cc(OC3CCNCC3)ccc12 [SAR-407899 FREE BASE]
Kd [1]: > 30 µM (inactive) | Kd [2]: > 30 µM (inactive) | Kd [3]: > 30 µM (inactive) | Kd [4]: > 30 µM (inactive) | Kd [5]: > 30 µM (inactive)

CNC(=O)c1cccc2cc(Oc3ccnc4cc(OCC5(N)CC5)c(OC)cc34)ccc12 [LUCITANIB]
Kd [1]: > 30 µM (inactive) | Kd [2]: > 30 µM (inactive) | Kd [3]: > 30 µM (inactive) | Kd [4]: > 30 µM (inactive) | Kd [5]: > 30 µM (inactive)

C=CC(=O)Nc1cc2c(Nc3ccc(F)c(Cl)c3)ncnc2cc1C#CC(C)(C)N1CCN(C)CC1 [AV-412 FREE BASE]
Kd [1]: > 30 µM (inactive) | Kd [2]: > 30 µM (inactive) | Kd [3]: > 30 µM (inactive) | Kd [4]: > 30 µM (inactive) | Kd [5]: > 30 µM (inactive)

C[C@@H](NC(=O)c1ncnc(N)c1Cl)c1ncc(C(=O)Nc2cc(C(F)(F)F)c(Cl)cn2)s1 [TOVORAFENIB]
Kd [1]: > 30 µM (inactive) | Kd [2]: > 30 µM (inactive) | Kd [3]: > 30 µM (inactive) | Kd [4]: > 30 µM (inactive) | Kd [5]: > 30 µM (inactive)

NC(=O)Nc1cc(-c2cccc(F)c2)sc1C(=O)N[C@H]1CCCNC1 [AZD-7762]
Kd [1]: > 30 µM (inactive) | Kd [2]: > 30 µM (inactive) | Kd [3]: 0.253 µM (active) | Kd [4]: > 30 µM (inactive) | Kd [5]: > 30 µM (inactive)

NC(=O)c1c(OCc2c(F)cc(Br)cc2F)nsc1NC(=O)NCCCCN1CCCC1 [OSI-632]
Kd [1]: > 30 µM (inactive) | Kd [2]: > 30 µM (inactive) | Kd [3]: > 30 µM (inactive) | Kd [4]: > 30 µM (inactive) | Kd [5]: > 30 µM (inactive)

Cn1cc(-c2cnn3c(N)c(Br)c([C@@H]4CCCNC4)nc23)cn1 [SCH-900776]
Kd [1]: > 30 µM (inactive) | Kd [2]: > 30 µM (inactive) | Kd [3]: > 30 µM (inactive) | Kd [4]: > 30 µM (inactive) | Kd [5]: > 30 µM (inactive)

CCn1c(C(=O)N(C2CC2)C2CC2)cc2c3c(ncn3C)c(Nc3cc(C)n(C)n3)nc21 [BMS-911543]
Kd [1]: > 30 µM (inactive) | Kd [2]: > 30 µM (inactive) | Kd [3]: > 30 µM (inactive) | Kd [4]: > 30 µM (inactive) | Kd [5]: > 30 µM (inactive)

FC(F)(F)c1ccc(/C=C/c2nc(COc3ccc(CCCCn4ccnn4)cc3)co2)cc1 [MUBRITINIB]
Kd [1]: > 30 µM (inactive) | Kd [2]: > 30 µM (inactive) | Kd [3]: > 30 µM (inactive) | Kd [4]: > 30 µM (inactive) | Kd [5]: > 30 µM (inactive)
